From ChEMBL document CHEMBL1909046, “DrugMatrix in vitro pharmacology data”

How the values were obtained:
Progesterone receptor = molecular target: T1, Progesterone receptor (Bos taurus, UniProt Q690N0); test: DRUGMATRIX: Progesterone radioligand binding (ligand: [3H] R-5020); format: tissue-based, Uterus; conditions: Not Active = under 50% inhibition at 10 µM
T1 sequence (Q690N0 whole entry): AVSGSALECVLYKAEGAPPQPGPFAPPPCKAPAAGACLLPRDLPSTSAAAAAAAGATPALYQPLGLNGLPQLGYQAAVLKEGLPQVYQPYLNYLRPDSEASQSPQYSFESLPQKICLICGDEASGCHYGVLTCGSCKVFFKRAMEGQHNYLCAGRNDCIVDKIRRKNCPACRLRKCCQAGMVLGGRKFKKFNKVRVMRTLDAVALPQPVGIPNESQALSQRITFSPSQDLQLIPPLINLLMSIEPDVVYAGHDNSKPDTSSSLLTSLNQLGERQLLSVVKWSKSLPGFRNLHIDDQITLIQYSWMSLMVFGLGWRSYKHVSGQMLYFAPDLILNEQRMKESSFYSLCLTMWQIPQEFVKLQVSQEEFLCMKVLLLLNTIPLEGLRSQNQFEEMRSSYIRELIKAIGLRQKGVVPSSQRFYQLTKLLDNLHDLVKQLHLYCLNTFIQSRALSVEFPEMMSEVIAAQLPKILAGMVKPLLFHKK

[1] = molecular target: C-C chemokine receptor type 2 (Homo sapiens, UniProt P41597); format: cell membranes, CHO-K1, Membrane; conditions: cho-k1; also: in other assays of this panel Not Active means under 50% inhibition at 10 µM
Sequence of C-C chemokine receptor type 2 (P41597 whole entry): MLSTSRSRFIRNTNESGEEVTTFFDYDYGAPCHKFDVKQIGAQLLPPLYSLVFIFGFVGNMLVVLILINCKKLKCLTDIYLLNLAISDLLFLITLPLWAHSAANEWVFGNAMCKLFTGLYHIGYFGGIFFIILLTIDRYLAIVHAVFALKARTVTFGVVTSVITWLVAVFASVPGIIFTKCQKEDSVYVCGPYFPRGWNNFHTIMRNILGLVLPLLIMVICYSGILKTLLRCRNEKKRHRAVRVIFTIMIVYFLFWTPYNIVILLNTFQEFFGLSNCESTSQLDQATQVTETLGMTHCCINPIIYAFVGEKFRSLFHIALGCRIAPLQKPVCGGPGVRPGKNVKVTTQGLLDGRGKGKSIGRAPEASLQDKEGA

Cannabinoid receptor 1 = Cannabinoid receptor 1 (Homo sapiens, UniProt P21554); format: cell membranes, Membrane; conditions: chem-1; also: in other assays of this panel Not Active means under 50% inhibition at 10 µM
Sequence of Cannabinoid receptor 1 (P21554 whole entry): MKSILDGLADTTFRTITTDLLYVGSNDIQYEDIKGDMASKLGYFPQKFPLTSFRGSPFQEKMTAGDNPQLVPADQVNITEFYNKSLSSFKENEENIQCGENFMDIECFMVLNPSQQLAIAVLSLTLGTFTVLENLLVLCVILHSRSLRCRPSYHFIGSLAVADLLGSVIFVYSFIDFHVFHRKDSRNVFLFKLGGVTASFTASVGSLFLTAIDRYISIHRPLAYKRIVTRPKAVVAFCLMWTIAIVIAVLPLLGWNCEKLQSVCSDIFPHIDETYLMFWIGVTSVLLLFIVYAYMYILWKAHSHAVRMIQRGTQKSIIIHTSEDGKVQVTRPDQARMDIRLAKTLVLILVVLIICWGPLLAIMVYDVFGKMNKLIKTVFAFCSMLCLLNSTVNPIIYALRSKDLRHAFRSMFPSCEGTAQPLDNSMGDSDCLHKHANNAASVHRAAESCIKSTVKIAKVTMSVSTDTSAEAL

[2] = molecular target: T2, Neuropeptide Y receptor type 1 (Homo sapiens, UniProt P25929); format: cell membranes, Membrane; conditions: sk-n-mc; also: in other assays of this panel Not Active means under 50% inhibition at 10 µM
T2 sequence (P25929 whole entry): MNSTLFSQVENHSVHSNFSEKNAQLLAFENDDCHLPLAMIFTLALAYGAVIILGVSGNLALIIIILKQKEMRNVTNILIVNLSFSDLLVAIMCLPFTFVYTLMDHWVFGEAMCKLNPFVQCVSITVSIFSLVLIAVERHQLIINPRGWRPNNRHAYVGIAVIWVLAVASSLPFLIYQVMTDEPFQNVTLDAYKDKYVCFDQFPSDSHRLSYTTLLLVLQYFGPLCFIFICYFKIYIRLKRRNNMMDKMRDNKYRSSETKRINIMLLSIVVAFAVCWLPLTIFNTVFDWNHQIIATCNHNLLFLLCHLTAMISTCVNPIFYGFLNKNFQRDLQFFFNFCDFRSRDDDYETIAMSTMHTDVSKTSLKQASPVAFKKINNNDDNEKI

Caspase-1 = molecular target: T3, Caspase-1 (Homo sapiens, UniProt P29466); set-up: species or system Escherichia coli;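 also: Caspase-1 enzyme inhibition assay with a peptide substrate; in other assays of this panel Not Active means under 50% inhibition at 10 µM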
T3 sequence (P29466 whole entry): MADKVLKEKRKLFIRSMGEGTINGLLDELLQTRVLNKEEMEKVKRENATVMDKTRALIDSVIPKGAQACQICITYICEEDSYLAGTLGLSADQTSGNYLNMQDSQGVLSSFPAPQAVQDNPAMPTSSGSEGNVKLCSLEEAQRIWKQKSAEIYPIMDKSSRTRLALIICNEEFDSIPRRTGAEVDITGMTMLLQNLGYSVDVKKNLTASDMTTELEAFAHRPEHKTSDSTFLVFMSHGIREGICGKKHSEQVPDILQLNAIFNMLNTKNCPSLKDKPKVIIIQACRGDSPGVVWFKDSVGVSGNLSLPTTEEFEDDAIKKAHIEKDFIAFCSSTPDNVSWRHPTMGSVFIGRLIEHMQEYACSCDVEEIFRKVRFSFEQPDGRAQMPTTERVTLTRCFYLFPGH

[3] = molecular target: T4, 5-hydroxytryptamine receptor 2C (Homo sapiens, UniProt P28335); test: DRUGMATRIX: Serotonin (5-Hydroxytryptamine) 5-HT2C radioligand binding (ligand: [3H] Mesulergine); format: cell membranes, CHO-K1, Membrane; conditions: Not Active = under 50% inhibition at 10 µM; for Ki: read-out: Ki
T4 sequence (P28335 whole entry): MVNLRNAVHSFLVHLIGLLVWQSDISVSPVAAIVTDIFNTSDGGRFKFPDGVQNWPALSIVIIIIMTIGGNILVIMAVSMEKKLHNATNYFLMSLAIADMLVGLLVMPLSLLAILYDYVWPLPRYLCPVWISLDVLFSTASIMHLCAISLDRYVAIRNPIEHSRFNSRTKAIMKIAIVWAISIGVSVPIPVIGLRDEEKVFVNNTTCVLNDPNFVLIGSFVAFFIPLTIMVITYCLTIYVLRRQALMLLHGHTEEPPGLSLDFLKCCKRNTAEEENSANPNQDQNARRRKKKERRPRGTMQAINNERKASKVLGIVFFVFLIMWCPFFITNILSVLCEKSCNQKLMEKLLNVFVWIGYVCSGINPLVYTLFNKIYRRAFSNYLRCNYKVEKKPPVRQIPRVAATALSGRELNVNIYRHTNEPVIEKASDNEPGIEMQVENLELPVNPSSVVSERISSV

[4] = DRUGMATRIX: beta-Lactamase enzyme inhibition (substrate: Nitrocefin); set-up: species or system Bacillus cereus; conditions: Not Active = under 50% inhibition at 10 µM

| SMILES | IC50 (Progesterone receptor) | IC50 [1] | IC50 (Cannabinoid receptor 1) | IC50 [2] | IC50 (Caspase-1) | IC50 ([3]; cho-k1) | IC50 [4] | Ki [4] | IC50 ([3]; read-out: IC50) | Ki [3] | IC50 (Progesterone receptor; read-out: IC50) | Ki (Progesterone receptor; read-out: Ki) |
| --- | --- | --- | --- | --- | --- | --- | --- | --- | --- | --- | --- | --- |
| CO[C@H]1[C@@H](O)[C@H](N)[C@@H](O[C@H]2O[C@H]([C@H](C)N)CC[C@H]2N)[C@H](O)[C@@H]1N(C)C(=O)CN [ASTROMICIN] | Not Active | Not Active | Not Active | Not Active | Not Active | Not Active | Not Active | Not Active |  |  |  |  |
| Clc1cc2c(cc1Cl)Oc1cc(Cl)c(Cl)cc1O2 [2,3,7,8-TETRACHLORODIBENZO-P-DIOXIN] | Not Active | Not Active | Not Active | Not Active | Not Active | Not Active | Not Active | Not Active |  |  |  |  |
| CNC(=C[N+](=O)[O-])NCCSCc1csc(CN(C)C)n1 [NIZATIDINE] | Not Active | Not Active | Not Active | Not Active | Not Active | Not Active | Not Active | Not Active |  |  |  |  |
| N=C(N)N/N=C/c1c(Cl)cccc1Cl [GUANABENZ] | Not Active | Not Active | Not Active | Not Active | Not Active |  | Not Active | Not Active | 204 nM | 107 nM |  |  |
| CC(C)C[C@H]1C(=O)N2CCC[C@H]2[C@]2(O)O[C@](NC(=O)[C@@H]3C=C4c5cccc6[nH]c(Br)c(c56)C[C@H]4N(C)C3)(C(C)C)C(=O)N12 [BROMOCRIPTINE] | Not Active | Not Active | Not Active | Not Active | Not Active |  | Not Active | Not Active | 532 nM | 278 nM |  |  |
| COc1ccc2cc(CCC(C)=O)ccc2c1 [NABUMETONE] | Not Active | Not Active | Not Active | Not Active | Not Active | Not Active | Not Active | Not Active |  |  |  |  |
| CC(C(=O)O)c1ccc(CC2CCCC2=O)cc1 (stereo not given) [LOXOPROFEN] | Not Active | Not Active | Not Active | Not Active | Not Active | Not Active | Not Active | Not Active |  |  |  |  |
| CCCCCC[C@H]1C(=O)O[C@H](C)[C@H](NC(=O)c2cccc(NC=O)c2O)C(=O)O[C@@H](C)[C@@H]1OC(=O)CC(C)C [ANTIMYCIN A] | Not Active | Not Active | Not Active | Not Active | Not Active | Not Active | Not Active | Not Active |  |  |  |  |
| COc1ccc(Cc2nccc3cc(OC)c(OC)cc23)cc1OC [PAPAVERINE] | Not Active | Not Active | Not Active | Not Active | Not Active | Not Active | Not Active | Not Active |  |  |  |  |
| O=c1cc(-c2ccccc2)oc2ccc3ccccc3c12 [BETA-NAPHTHOFLAVONE] | Not Active | Not Active | Not Active | Not Active | Not Active | Not Active | Not Active | Not Active |  |  |  |  |
| CC(=O)O[C@]1(C(C)=O)CC[C@H]2[C@@H]3C=C(Cl)C4=CC(=O)[C@@H]5C[C@@H]5[C@]4(C)[C@H]3CC[C@@]21C [CYPROTERONE ACETATE] |  | Not Active | Not Active | Not Active | Not Active | Not Active | Not Active | Not Active |  |  | 37 nM | 4.84 nM |
| CCN[C@@H](C)Cc1cccc(C(F)(F)F)c1 [DEXFENFLURAMINE] | Not Active | Not Active | Not Active | Not Active | Not Active | Not Active | Not Active | Not Active |  |  |  |  |
| Nn1nnc2ccccc21 | Not Active | Not Active | Not Active | Not Active | Not Active | Not Active | Not Active | Not Active |  |  |  |  |
| O=C(O)Cc1ccc(-c2ccccc2)cc1 [FELBINAC] | Not Active | Not Active | Not Active | Not Active | Not Active | Not Active | Not Active | Not Active |  |  |  |  |
